Columns and labels:
[1] = test system: HeLa cells expressing the HT178-cpNLuc-179 chimera; assay: Bioluminescence-triggered uncaging of azido-quenched fluorophores inside cells; assay type: cell-based; conditions: 2-20 μM fluorophore, 20 μM fluorofurimazine 45 minutes, with/without Ir-9049 or Ru-8974 (3 μM)
Experimental: Structure of exemplary azido quenched fluorophores and a cartoon depicting bioluminescent-triggered fluorescence turn-on are included in FIG. 9. Briefly, upon absorbance of light, the excited catalyst engages in energy transfer events with the azido-quenched fluorophore to generate a nitrene through elimination of an N2 group, which restore the fluorophore's fluorescence. HeLa cells were transfected with a DNA construct encoding HT178-cpNLuc-179 that was diluted 50-fold into promoterless carrier DNA, plated in flasks at 2×10^5 cell/mL, and incubated 16-18 hours at 37° C., 5% CO2. The next day, cells were collated, replated in 24-well plates at 2×10^5 cell/mL, and incubated overnight at 37° C., 5% CO2. […] Cells were then washed twice, 15 minutes each, in HBSS buffer to remove excess unreacted catalyst or chloroalkane-biotin.

[2] = test system: Firefly (FFLY) luciferase; assay: Bioluminescence-triggered uncaging of p-azidobenzyl-luciferin, FFLY luminescence readout; assay type: biochemical
Experimental: As depicted in FIG. 17A, bioluminescence-triggered ruthenium-catalyzed reduction of p-azidobenzyl-caged luciferin to liberate luciferin, which is then available as substrate for Firefly (FFLY) luciferase. Synthesis of p-azidobenzyl-caged luciferin is provided in Example 11. […] Residual NanoLuc bioluminescence signal was quenched by treatment with 10 mM competitive extracellular NanoLuc inhibitor before subsequent 5-fold dilution into FFLY detection plate comprising FFLY luciferase, ATP, and Bright-Glo buffer. Bioluminescence was measured before and after dilution into the FFLY detection plate.

[3] = test system: NanoLuc (Nluc) enzyme; assay: Bioluminescence-triggered release of serotonin from caging Ru complex; assay type: biochemical; conditions: 200 μM RuBi5, 6 nM NanoLuc, 5 μM fluorofurimazine, 40 minutes
Experimental: As depicted in FIG. 16A, the amino-signaling molecule serotonin is caged through a coordination reaction with the [Ru^2+(bpy)2]2 core. Upon absorbance of light, the excited ruthenium catalyst induces an oxidation-driven release of serotonin while a water molecule occupies the vacant coordination site.
Here, 6 nM NanoLuc (Nluc) enzyme and 5 μM fluorofurimazine, in the presence and absences of 200 μM RuBi5 (Abcam), were incubated in a white plate for 40 minutes. Reactions were then transferred to a black plate, and 200 μM RuBi5 (caged) added to the control wells.

[4] = test system: Firefly (FFLY) luciferase; assay: Bioluminescence-triggered uncaging of o-nitrobenzyl-F-luciferin, FFLY luminescence readout; assay type: biochemical
Experimental: As depicted in FIG. 18A, bioluminescence-triggered ruthenium-catalyzed excitation of o-nitrobenzyl-caged F-luciferin to liberate F-luciferin, which is then available as a substrate for FFLY luciferase. Synthesis of o-nitrobenzyl-caged F-luciferin is provided in Example 11. […] Residual NanoLuc bioluminescence signal was quenched by treatment with 10 mM competitive extracellular NanoLuc inhibitor before subsequent 5-fold dilution into FFLY detection plate comprising FFLY luciferase, ATP, and Bright-Glo buffer. Bioluminescence was measured before and after dilution into the FFLY detection plate.

[5] = 60 nM HT178-cpNLuc-179 tethered/untethered to Ru-8974, 0-10 μM, with/without 20 μM fluorofurimazine, 45 minutes
[6] = fold increase in FFLY luminescence

Compound: CC[n+]1c(-c2ccccc2)c2cc(N=[N+]=[N-])ccc2c2ccc(N)cc21.[Br-] [EMA, Ethidium Monoazide Bromide, reference compound]
- fluorescence turn-on upon uncaging [1]: pronounced catalyst dependent increase in fluorescence

Compound: [N-]=[N+]=Nc1ccc(COc2ccc3nc(C4=N[C@@H](C(=O)O)CS4)sc3c2)cc1 [p-azidobenzyl-luciferin, (S)-2-(6-((4-azidobenzyl)oxy)benzo[d]thiazol-2-yl)-4,5-dihydrothiazole-4-carboxylic acid]
- FFLY luminescence after uncaging [2, 5]: Bioluminescence and Ru-dependent increase in FFLY dependent bioluminescence
- uncaging efficiency, bioluminescence versus LED [2, 6]: higher efficiency for bioluminescence-driven uncaging compared to LED

Compound: [Ru(bpy)2(PMe3)(5HT)]^2+ [RuBi5]
- serotonin emission after bioluminescence exposure [3]: bioluminescence-dependent increase in the 340 nm peak emission for serotonin

Compound: O=C(O)[C@H]1CSC(c2nc3cc(F)c(OCc4ccc([N+](=O)[O-])cc4)cc3s2)=N1 [o-nitrobenzyl-F-luciferin, (S)-2-(5-fluoro-6-((4-nitrobenzyl)oxy)benzo[d]thiazol-2-yl)-4,5-dihydrothiazole-4-carboxylic acid]
- FFLY luminescence after uncaging [4, 5]: Bioluminescence and Ru-dependent increase in FFLY dependent bioluminescence
- uncaging efficiency, bioluminescence versus LED [4, 6]: higher efficiency for bioluminescence-driven uncaging compared to LED

Compound: CCN(CC)c1ccc2c(C)c(N=[N+]=N)c(=O)oc2c1 [PBI-8977]
- fluorescence turn-on upon uncaging [1]: pronounced catalyst dependent increase in fluorescence
